Data from patent US7393526B2, “Systemic gene delivery vehicles for the treatment of tumors” (Children's Medical Center Corporation, priority 2000, dated 2008).

Key:
[1] = tested on: CNS-1 glioblastoma; assay: Intracranial CNS-1 tumor co-transplanted with CD-NSCs, i.p. 5-FC: tumor mass; assay type: in vivo, adult nude mice; details: tumor alone, 5-FC 900 mg/kg i.p. for 10 days
Source text: CNS-1 glioblastoma cells alone, or CNS-1 cells co-transplanted with human CS-NSCs were implanted into the frontal lobe of adult nude mice. Two days later, treated animals began to receive daily intraperitoneal injections of 5-FC which continued for ten days. […] Note that there was about an 80% reduction in tumor mass in 5-FC-treated animals transplanted with tumor and CD-NSCs (FIG. 3D). […] FIGS. 3B, 3C and 3D are “camera lucida” sections of tumor areas on representative cryostat tissue sections, stained with X-gal and counterstained with neutral red.
On Day 0, adult nude mice received stereotactically guided injections into the right frontal lobe of CNS-1 glioblastoma alone (7×10^4 in 2 μl PBS), or CNS-1 cells mixed with CD-NSCs (7×10^4 CNS-1 and 3.5×10^4 NSCs in 2 μl PBS). Two days later treated animals received 10 intraperitoneal injections 900 mg/kg of 5-FC over a period of 10 days. Control animals received no 5-FC. Animals were sacrificed on day 13.

[2] = tested on: CNS-1 glioma cells; assay: Co-culture of CD-NSCs with glioma cells plus 5-FC: tumor cell count per high-power field; assay type: cell-based; details: tumor cell-only plates, no CD-NSCs, 5-FC 500 μg/ml
Source text: FIGS. 2A-2C summarize the significant antitumor effect of CD-expressing NSCs in vitro. CNS-1 glioblastoma cells were co-cultured with murine CD-NSCs (FIGS. 2A and 2B) or human CD-NSCs. Representative low power fields are shown after fixation and X-gal staining (CD-NSCs dark blue, tumor cells pale) three days after plating with or without 5-FC. […] In this treatment regime, the NSCs were still dividing and thus also subject to elimination by 5-FU and its toxic metabolites. […] Note also, that the tumor-killing effect was virtually identical whether 50,000 or 100,000 CD-NSCs were initially plated with 200,000 tumor cells.
This experiment was performed to determine if modified CD-NSCs could effectively deliver therapy to tumor cells and produce a profound antitumor response. 200,000 CNS-1 glioma cells were plated into 10 cm Petri dishes. The following day (Day 1) media were replaced, and 50,000 or 100,000 CD-NSCs were added. On Day 2, media were replaced and 5-FC added (500 μg/ml). Control dishes included tumor-NSC co-cultures with no 5-FC treatment and tumor cell-only dishes with 5-FC treatment. Three days later, all plates were rinsed well with 1× PBS and fixed with 4% paraformaldehyde for 10 min at room temperature. […] Under high power, the numbers of tumor cells per field were counted. […]

Question: For `Nc1nc(=O)[nH]cc1F` [5-FC, 5-fluorocytosine], which “effect on tumor mass in the absence of CD-NSCs” value [1] is on record?
Answer: no effect on tumor mass

Question: What about the “killing of tumor cells, tumor alone” value [2] of the same compound?
Answer: not significantly killed
